We go through four molecules from ChEMBL document CHEMBL5705888, “Substrate specificity and inhibitors of LRRK2, a protein kinase mutated in Parkinson's disease” (Biochem J, 2009).

The structures appear in SMILES notation. The source made the active and inactive calls. The rule behind the calls is not given here.

In assay [1] the target is Serine/threonine-protein kinase pim-3 (Homo sapiens) (UniProt Q86V86). In words: Inhibition of PIM3 (unknown origin) at 10 uM incubated for 30 mins in presence of [gamma-33P]ATP by multidrop micro reagent based assay relative to control; values are per cent of control.
The target of assay [2] is SRSF protein kinase 1 (Homo sapiens) (UniProt Q96SB4). Description: Inhibition of SRPK1 (unknown origin) at 10 uM incubated for 30 mins in presence of [gamma-33P]ATP by multidrop micro reagent based assay relative to control; values are per cent of control.
In assay [3] the target is T1, MAP kinase-activated protein kinase 5 (Homo sapiens) (UniProt Q8IW41).
T1 sequence (whole entry): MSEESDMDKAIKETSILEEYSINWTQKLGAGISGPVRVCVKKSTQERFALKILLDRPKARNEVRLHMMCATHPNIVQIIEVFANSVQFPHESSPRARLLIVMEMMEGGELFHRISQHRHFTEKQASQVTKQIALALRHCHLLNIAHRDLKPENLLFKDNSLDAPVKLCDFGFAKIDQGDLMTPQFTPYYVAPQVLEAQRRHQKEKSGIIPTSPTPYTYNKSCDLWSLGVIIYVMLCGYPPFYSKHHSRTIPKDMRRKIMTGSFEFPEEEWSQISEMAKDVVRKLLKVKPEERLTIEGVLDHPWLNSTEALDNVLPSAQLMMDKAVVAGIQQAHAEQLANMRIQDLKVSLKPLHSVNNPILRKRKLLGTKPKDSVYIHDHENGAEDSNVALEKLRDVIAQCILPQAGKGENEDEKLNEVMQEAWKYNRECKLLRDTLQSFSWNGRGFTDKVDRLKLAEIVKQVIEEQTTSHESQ
Description: Inhibition of PRAK (unknown origin) at 10 uM incubated for 30 mins in presence of [gamma-33P]ATP by multidrop micro reagent based assay relative to control; values are per cent of control.

For assay [4], the target named is Mitogen-activated protein kinase 3 (Homo sapiens) (UniProt P27361). In words: Inhibition of ERK1 (unknown origin) at 10 uM incubated for 30 mins in presence of [gamma-33P]ATP by multidrop micro reagent based assay relative to control; values are per cent of control.
In assay [5] the target is Dual specificity tyrosine-phosphorylation-regulated kinase 1A (Homo sapiens) (UniProt Q13627). In words: Inhibition of DYRK1A (unknown origin) at 10 uM incubated for 30 mins in presence of [gamma-33P]ATP by multidrop micro reagent based assay relative to control; values are per cent of control.
The target in assay [6] is 3-phosphoinositide-dependent protein kinase 1 (Homo sapiens) (UniProt O15530). In words: Inhibition of PDK1 (unknown origin) at 1 uM incubated for 30 mins in presence of [gamma-33P]ATP by multidrop micro reagent based assay relative to control; values are per cent of control.
The target in assay [7] is Misshapen-like kinase 1 (Homo sapiens) (UniProt Q8N4C8). Description: Inhibition of MINK1 (unknown origin) at 10 uM incubated for 30 mins in presence of [gamma-33P]ATP by multidrop micro reagent based assay relative to control; values are per cent of control.
The target in assay [8] is T2, Ephrin type-B receptor 3 (Homo sapiens) (UniProt P54753).
T2 sequence (whole entry): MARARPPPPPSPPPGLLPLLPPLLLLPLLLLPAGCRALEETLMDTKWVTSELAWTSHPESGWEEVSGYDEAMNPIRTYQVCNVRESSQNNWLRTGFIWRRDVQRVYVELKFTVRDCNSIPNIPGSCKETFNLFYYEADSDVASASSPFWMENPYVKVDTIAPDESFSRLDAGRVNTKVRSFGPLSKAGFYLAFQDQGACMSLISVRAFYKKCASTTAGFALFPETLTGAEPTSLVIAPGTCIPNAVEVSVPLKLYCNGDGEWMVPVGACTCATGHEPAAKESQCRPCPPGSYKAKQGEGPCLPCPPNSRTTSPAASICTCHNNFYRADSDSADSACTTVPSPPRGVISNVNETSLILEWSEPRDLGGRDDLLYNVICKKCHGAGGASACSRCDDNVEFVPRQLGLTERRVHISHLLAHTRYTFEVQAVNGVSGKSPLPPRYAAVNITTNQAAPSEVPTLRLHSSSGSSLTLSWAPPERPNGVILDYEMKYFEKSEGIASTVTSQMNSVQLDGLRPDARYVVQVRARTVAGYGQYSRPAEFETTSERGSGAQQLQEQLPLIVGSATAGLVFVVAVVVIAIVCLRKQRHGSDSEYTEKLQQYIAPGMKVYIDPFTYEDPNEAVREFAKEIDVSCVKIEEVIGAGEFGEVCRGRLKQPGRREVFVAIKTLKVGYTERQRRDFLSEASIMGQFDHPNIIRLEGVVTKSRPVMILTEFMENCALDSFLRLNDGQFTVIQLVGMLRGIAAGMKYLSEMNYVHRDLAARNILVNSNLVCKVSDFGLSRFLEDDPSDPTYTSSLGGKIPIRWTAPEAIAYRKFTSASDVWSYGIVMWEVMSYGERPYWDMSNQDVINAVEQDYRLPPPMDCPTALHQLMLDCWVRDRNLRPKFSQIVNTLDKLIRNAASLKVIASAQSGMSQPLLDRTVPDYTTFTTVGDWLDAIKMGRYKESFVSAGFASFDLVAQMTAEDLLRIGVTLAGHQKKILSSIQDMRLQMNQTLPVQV
Description: Inhibition of EPH-B3 (unknown origin) at 10 uM incubated for 30 mins in presence of [gamma-33P]ATP by multidrop micro reagent based assay relative to control; values are per cent of control.

Assay [9] addresses Leucine-rich repeat serine/threonine-protein kinase 2 (Mus musculus) (UniProt Q5S006). Description: Inhibition of LRRK2 in mouse Swiss-3T3 cells at 2 uM using Nictide as substrate by immunoblot analysis. The format is cell-based. For orientation: Immunoblotting shows a protein as a band on a membrane.

Sequence of Misshapen-like kinase 1 (Homo sapiens) (Q8N4C8 whole entry, looked up): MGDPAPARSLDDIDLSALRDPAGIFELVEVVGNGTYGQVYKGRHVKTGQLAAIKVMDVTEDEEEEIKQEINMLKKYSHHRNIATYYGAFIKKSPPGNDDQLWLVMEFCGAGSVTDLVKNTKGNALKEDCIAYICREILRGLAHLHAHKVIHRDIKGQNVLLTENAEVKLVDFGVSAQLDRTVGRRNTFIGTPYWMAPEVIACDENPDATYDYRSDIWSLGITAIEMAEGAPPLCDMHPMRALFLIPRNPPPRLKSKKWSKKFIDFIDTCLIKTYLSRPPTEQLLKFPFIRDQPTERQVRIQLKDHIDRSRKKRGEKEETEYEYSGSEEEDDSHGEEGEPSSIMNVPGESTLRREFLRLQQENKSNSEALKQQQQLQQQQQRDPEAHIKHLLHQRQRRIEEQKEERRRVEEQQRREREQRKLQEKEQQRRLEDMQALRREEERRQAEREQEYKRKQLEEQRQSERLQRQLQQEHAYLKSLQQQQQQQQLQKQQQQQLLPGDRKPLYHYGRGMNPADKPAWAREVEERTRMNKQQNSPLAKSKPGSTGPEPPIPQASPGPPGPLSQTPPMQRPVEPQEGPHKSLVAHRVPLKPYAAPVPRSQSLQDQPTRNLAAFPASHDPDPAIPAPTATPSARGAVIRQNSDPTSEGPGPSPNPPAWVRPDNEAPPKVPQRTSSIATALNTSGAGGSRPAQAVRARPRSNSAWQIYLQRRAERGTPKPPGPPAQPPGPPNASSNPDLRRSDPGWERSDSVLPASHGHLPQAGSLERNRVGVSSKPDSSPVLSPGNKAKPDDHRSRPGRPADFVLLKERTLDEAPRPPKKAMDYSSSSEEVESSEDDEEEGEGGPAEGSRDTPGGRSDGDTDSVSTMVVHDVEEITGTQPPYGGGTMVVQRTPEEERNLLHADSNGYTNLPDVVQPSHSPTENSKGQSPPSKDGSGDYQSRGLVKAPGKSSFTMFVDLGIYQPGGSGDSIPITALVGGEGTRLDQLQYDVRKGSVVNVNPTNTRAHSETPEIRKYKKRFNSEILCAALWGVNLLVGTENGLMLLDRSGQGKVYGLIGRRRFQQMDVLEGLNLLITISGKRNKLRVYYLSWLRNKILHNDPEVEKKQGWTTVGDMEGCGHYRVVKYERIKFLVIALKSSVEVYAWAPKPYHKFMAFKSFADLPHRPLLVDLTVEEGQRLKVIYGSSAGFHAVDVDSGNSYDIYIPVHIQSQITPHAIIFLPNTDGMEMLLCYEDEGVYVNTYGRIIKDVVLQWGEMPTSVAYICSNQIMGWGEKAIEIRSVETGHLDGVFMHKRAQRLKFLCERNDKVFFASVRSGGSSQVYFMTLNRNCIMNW
Sequence of 3-phosphoinositide-dependent protein kinase 1 (Homo sapiens) (O15530 whole entry, looked up): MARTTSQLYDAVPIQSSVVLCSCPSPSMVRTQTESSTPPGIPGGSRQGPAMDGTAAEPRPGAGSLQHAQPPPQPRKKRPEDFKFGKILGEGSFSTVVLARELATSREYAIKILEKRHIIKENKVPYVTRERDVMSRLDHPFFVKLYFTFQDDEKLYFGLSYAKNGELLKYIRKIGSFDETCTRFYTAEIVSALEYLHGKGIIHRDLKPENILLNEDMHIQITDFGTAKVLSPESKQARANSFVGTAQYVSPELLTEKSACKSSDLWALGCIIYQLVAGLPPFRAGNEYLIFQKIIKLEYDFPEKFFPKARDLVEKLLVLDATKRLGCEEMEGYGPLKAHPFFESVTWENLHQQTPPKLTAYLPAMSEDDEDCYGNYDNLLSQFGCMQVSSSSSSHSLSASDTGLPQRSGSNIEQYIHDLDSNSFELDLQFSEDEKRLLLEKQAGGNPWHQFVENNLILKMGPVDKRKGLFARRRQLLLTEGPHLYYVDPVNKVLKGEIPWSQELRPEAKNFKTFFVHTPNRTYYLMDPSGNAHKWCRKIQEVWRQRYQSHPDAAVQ
Sequence of Leucine-rich repeat serine/threonine-protein kinase 2 (Mus musculus) (Q5S006 whole entry): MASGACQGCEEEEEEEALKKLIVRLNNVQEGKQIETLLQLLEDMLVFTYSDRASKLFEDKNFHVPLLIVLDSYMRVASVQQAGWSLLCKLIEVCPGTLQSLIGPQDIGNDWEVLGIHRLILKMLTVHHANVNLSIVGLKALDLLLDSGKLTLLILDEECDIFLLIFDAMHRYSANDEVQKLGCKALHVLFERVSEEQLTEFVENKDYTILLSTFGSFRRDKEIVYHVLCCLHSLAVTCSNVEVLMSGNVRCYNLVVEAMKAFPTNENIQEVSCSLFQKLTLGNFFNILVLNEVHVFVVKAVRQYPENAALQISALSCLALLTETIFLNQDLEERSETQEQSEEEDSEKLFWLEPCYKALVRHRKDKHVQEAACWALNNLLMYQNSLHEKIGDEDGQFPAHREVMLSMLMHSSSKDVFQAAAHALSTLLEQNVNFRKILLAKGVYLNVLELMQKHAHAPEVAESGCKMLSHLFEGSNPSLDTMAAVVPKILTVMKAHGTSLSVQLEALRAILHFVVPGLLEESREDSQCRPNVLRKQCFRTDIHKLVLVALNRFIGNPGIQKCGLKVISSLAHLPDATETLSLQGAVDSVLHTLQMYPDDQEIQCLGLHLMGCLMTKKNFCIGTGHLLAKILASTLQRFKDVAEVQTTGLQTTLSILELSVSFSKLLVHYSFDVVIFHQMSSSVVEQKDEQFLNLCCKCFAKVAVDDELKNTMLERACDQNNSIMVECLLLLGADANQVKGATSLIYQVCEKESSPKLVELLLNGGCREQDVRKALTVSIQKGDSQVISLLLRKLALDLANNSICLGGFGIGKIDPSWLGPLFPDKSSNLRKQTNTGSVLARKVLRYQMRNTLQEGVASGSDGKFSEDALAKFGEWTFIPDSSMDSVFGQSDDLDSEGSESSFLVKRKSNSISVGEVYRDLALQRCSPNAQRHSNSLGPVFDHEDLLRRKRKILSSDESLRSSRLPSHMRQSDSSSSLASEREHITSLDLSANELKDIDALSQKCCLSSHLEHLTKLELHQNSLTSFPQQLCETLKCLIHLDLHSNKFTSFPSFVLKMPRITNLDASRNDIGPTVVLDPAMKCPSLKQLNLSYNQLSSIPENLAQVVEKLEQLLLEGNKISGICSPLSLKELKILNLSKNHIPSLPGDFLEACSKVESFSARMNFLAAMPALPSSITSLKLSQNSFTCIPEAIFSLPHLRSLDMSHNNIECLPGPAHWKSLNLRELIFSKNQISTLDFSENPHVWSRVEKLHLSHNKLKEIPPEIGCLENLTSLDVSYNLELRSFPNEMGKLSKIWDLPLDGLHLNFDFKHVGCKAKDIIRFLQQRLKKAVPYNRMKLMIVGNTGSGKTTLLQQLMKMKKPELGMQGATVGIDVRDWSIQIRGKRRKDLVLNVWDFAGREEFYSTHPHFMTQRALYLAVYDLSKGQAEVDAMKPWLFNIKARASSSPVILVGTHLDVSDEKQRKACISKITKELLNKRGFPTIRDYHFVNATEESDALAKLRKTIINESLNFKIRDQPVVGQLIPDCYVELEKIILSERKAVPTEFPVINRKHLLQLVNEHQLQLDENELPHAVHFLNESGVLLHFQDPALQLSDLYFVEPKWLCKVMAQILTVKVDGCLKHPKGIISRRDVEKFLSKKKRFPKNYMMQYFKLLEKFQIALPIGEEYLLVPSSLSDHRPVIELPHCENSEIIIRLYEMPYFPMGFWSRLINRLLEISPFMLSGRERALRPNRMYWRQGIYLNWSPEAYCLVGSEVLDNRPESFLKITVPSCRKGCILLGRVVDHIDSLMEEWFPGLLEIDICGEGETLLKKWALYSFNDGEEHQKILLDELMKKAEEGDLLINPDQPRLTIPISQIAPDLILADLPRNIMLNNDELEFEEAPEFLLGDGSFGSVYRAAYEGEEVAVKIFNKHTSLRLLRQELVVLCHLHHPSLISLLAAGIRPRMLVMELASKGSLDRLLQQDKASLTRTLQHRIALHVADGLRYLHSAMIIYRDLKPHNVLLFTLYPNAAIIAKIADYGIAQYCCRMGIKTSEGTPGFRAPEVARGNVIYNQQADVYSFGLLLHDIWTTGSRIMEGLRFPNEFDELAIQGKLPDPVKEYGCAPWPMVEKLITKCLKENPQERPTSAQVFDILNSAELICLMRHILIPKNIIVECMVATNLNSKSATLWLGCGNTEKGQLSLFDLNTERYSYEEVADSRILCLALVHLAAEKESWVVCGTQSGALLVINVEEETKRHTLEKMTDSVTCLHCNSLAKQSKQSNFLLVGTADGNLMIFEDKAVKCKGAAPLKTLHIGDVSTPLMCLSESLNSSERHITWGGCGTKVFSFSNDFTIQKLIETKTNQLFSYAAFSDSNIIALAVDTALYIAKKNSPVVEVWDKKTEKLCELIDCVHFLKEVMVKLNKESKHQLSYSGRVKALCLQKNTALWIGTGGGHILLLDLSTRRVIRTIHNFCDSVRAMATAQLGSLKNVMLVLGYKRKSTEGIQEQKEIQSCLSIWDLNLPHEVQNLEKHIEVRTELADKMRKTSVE
Sequence of Mitogen-activated protein kinase 3 (Homo sapiens) (P27361 whole entry): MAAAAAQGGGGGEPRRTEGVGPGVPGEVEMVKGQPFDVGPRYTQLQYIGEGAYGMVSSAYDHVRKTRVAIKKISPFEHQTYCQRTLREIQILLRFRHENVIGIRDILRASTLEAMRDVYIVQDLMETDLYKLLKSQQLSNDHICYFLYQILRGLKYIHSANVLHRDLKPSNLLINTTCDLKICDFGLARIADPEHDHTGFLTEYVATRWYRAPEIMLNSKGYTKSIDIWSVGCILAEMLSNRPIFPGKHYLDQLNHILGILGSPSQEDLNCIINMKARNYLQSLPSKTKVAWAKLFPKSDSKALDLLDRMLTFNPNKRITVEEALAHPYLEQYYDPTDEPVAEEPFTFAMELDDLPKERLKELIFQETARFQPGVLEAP

In the case of `C[C@@H](N)[C@H]1CC[C@H](C(=O)Nc2ccncc2)CC1`, the residual activity in [1] worked out at 87%; in [2], 65%; in assay [3] it was 88%; in assay [4], 92%; in assay [5], 96%.
Take `CC1=C(C(=O)Nc2cc3cn[nH]c3cc2F)C(c2ccc(C(F)(F)F)cc2)CC(=O)N1` (centres undefined): the residual activity in assay [6] stood at 120%.
As for `O=S(=O)(c1cccc2cnccc12)N1CCCNCC1` [FASUDIL], the residual activity in assay [7] was 54%; in [8], 65%.
Regarding `Cc1cncc2cccc(S(=O)(=O)N3CCCNC[C@@H]3C)c12`, the inhibition entry in assay [9] is “Active”.
